Source: patent publication US8058425B2, “Purine derivatives as kinase inhibitors” (Eli Lilly and Company, priority 2002, dated 2011)

Columns and labels:
ZDF rats = assay: Glucose Lowering Assay; type: in vivo, rat; details: oral gavage, dose of 10 mg/kg
Protocol: The glucose lowering assay is an in vivo test that measures the effect of the test compound on blood glucose and triglycerides relative to insulin. (ELDAR-FINKLEMAN, H., et al., Expression and Characterization of Glycogen Synthase Kinase-3 Mutants and Their Effect on Glycogen Synthase Activity in Intact Cells, Proc. Nat. Acad. Sci, 93, 10228-10233 (1996)). Briefly, ZDF rats (Charles River, Inc.) at six weeks of age are housed individually with free access to food and water. Rats are dosed with drug once daily by oral gavage, with the compound prepared as a suspension in 1% caboxymethylcellusolve/0.25% Tween 80 (CMC-Tween). Vehicle controls are dosed with CMC-Tween only. The duration of study varied according to the protocol used, with acute dosing studies lasting one day and dose escalation studies lasting seven days. Body weights and food consumption measurements are also performed once a week for seven-day studies. For measurement of blood glucose and triglycerides, blood samples of 600 μl are collected by the tail snip method. […]

[1] = molecular target: T1, GSK-3β kinase activity in brain cortex tissue (Mus musculus, UniProt Q9WV60); assay: Ex Vivo Brain Assay; type: in vivo; details: oral dosing of mice, dose of 20 mg/kg
T1 construct: brain cortex tissue is dissected and homogenized in freshly prepared lysis buffer; from tissue; host or cells: mouse (PDAPP or CD-1) brain cortex, cytosolic homogenate
Protocol: The ex vivo brain assay assesses the GSK-3β kinase activity of the test compound in brain cortex tissue according to standard protocols (Wang, et al., Anal. Biochem., 220, 397-402 (1994)).
The ex vivo GSK-3β kinase activity of a compound is assayed following oral dosing of 2 to 3 month old PDAPP or CD-1 mice. After a 20 mg/kg, 24-hour dose, followed by an additional three-hour dose, brain cortex tissue is dissected and homogenized in freshly prepared lysis buffer (10 mM K2HPO4 pH 7.2, 1 mM EDTA, 5 mM EGTA, 10 mM MgCl2, 50 mM β-Glycerophosphate, 1 mM Na3VO4, 2 mM DTT, 1 μM Microcystin, COMPLETE protease inhibitor tablet, no detergent). Following a thirty-minute incubation on ice, cortex homogenate samples are centrifuged (100,000 G) for 30 minutes at 4° C. (Ahmed, N. N., et al., Oncogene, 8, 1957 […]). The total protein concentration of homogenate is determined using the BCA method (Pierce). GSK-3β activity in cytosolic homogenate from vehicle- and compound-treated mice is then assayed. The kinase reaction occurs in a 50 μl total volume containing 20 mM MOPS pH 7.4, 25 mM β-glycerol phosphate, 5 mM EGTA, 1 mM NA3VO4, 1 mM DTT, 15 mM MgCl2, 100 μM cold ATP, 200 μM CREB peptide, 10 μL cytosolic cortex brain homogenate, and 5 μCi γ-^33P-ATP. […] The following day, the filter plate is read for ^33P on Top Count (Packard). […]

[2] = system: AG04160C FAD lymphoblast cells; assay: Beta-Catenin Protection Assay; type: cell-based, human; details: 0.1 μM, 24 hours
Protocol: The beta-catenin assay is the fold induction over basal beta-catenin and is performed according to standard protocols (Hedgepeth, C. M., Dev. Biol., 185, 82-91 (1997); Chen, G., et al., J. Neurochem., 72, 1327-1330 (1999); Hong, M., et al., J. Biol. Chem., 272, 25326-25332 (1997)).
The human familial Alzheimer's disease (FAD) presenilin-1 AG04160C lymphoblast cell line (Coriell Cell Repository, Camden, N.J.) is maintained as a suspension culture in RPMI 1640 (with L-Glutamine) supplemented with 10% fetal bovine serum and 1% penicillin-streptomycin in an atmosphere of 37° C. and 5% CO2. The AG04160C FAD lymphoblast cells are seeded in T-25 cm^2 flasks at 2.5 to 5.0×10^5 cells/ml in a total volume of 10 ml. […] The total protein concentration in whole cell lysate samples is determined using the BCA method (Pierce). Next, 15 μg of sample is loaded on a 10% Bis-Tris NuPage gel and transferred to a pure nitrocellulose membrane followed by β-catenin immunoblot analysis using a (3-catenin specific antibody (Transduction Labs). The β-catenin accumulation/stability is then quantified following densitometry analysis of protein bands (Kodak Digital Science). Final results are reported as fold induction over basal β-catenin. The compound of Example 121 was tested in this assay and induced a 9.8-fold induction of β-catenin at 0.1 μM.

3T3-L1 adipocytes = assay: Glycogen Synthesis Assay; type: cell-based; details: 0.1 μM
Protocol: The glycogen synthesis assay measures the increase in the production of glycogen both in the absence and in the presence of insulin in the cells. This test is done according to standard protocols. (Berger, J. and Hayes, N. S., Anal. Biochem., 261, 159-163 (1998)). Briefly, 3T3-L1 adipocytes are plated and differentiated in a 96-well plate at 25,000 cells/well. The plate is serum-starved overnight. The serum-starvation media is removed just prior to assay, and the plate is washed with 100 μl/well Krebs-Ringer-Hepes buffer (KRBH). The KRBH is removed and 50 μl of compound (twice the amount of the final concentration) is added to the assay plate. Next, 50 μl of ^14C-labeled glucose is added to the assay plate at 0.1 μCi/well. The plate is then incubated at 37° C. for 2 hours.
The plate is washed with 100 μL/well of PBS, and the cells are lysed with 75 μl/well of 1N NaOH. The plate is heated at 70° C. for 20 minutes. An aliquot (50 μl) of the supernatant is transferred from the assay plate to a Millipore FC filter plate containing 120 μl/well of ice-cold ethanol. The plate is allowed to stand for 2 hours at 4° C. to facilitate precipitation. The ethanol is removed from the filter plate via a vacuum manifold, and the plate is washed with 100 uL/well of ice-cold 70% ethanol. […] The plate was then counted on a Packard Topcount. […]

female Fischer 344 rats = assay: Bone Deposition; type: in vivo, rat; parameters: key: +: hypertrophy and proliferation of osteoblasts with production of osteoid observed; −: hypertrophy and proliferation of osteoblasts with production of osteoid not observed at this dose; details: oral gavage daily for 4 days
Protocol: Vehicle or test compound in vehicle (1% Carboxymethylcellulose sodium, 0.25% Polysorbate 80, and 0.05% Dow Corning Antifoam 1510-US in purified water) is administered orally by gavage to female Fischer 344 rats daily for 4 days with three rats in each dosage group. The rats are delivered for necropsy and sections of formalin-fixed, paraffin-embedded bone are examined microscopically to evaluate osteoblast proliferation and deposition of osteoid.
The compounds in the following tables were tested essentially as described above and hypertrophy and proliferation of osteoblasts along surfaces of medullary trabecula and the cortical periosteum accompanied by production of osteoid was observed.
The compound of Example 365 was tested again essentially as described above at 0, 3, 10, and 30 mg/kg with four rats at each dosage level for 21 days. The vertebra and the femur were submitted for analysis of bone mineral density (BMD), bone mineral content (BMC), and cross sectional area following 21 days of daily dosing with the compound of Example 365.

T1 sequence (Q9WV60 whole entry): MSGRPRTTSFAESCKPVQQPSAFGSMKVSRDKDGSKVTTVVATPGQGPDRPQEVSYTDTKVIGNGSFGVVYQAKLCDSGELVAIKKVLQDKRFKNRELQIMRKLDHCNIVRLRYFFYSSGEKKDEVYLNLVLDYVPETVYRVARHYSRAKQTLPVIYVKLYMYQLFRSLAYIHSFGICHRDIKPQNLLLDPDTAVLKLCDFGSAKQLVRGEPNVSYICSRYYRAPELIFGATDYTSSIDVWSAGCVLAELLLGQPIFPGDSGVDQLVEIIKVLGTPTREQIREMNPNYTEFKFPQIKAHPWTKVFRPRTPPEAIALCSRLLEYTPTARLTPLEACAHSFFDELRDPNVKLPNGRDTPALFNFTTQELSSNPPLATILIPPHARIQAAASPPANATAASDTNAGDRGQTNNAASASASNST

Compound | glucose lowering (ZDF rats) [%] | inhibition of kinase activity (ex vivo GSK-3β, brain cortex) [1] [%] | fold induction over basal β-catenin [2] [fold] | increase of glycogen synthesis (3T3-L1 adipocytes; in the absence of insulin) [fold] | increase of glycogen synthesis (3T3-L1 adipocytes; in the presence of insulin) [fold] | hypertrophy and proliferation of osteoblasts with production of osteoid (female Fischer 344 rats; 50 mg/kg) | hypertrophy and proliferation of osteoblasts with production of osteoid (female Fischer 344 rats; 150 mg/kg)
Cl.O=C1NC(=O)C(c2cc(F)cc3ccoc23)=C1c1cn2c3c(cccc13)CNCC2 [Example 121, 3-(6,7-dihydro-6H-[1,4]diazepino[6,7,1-hi]indol-1-yl)-4-(5-fluorobenzofur-7-yl)-2,5-dioxopyrrole hydrochloride] | 56 | 30 | 9.8 | 3.7 | 6.4 | – | –
O=C1NC(=O)C(c2cnc3ccccn23)=C1c1cn2c3c(cccc13)CN(c1ncccn1)CC2 [Example 560, 3-(6-(pyrimidin-2-yl)-6,7-dihydro-6H-[1,4]diazepino[6,7,1-hi]indol-1-yl)-4-(imidazo[1,2-a]pyridin-3-yl)pyrrole-2,5-dione] | – | – | – | – | – | + | +
